Results from patent US20250376466A1, “ESTER COMPOUNDS AND USE THEREOF” (NANJING REJU THERAPEUTICS, CO., LTD., priority 2022, published 2025).

Key:
renal fibrosis = assay: Renal fibrosis animal model (ureter ligation); type: in vivo, mice; details: intraperitoneal (IP) injection from 2nd week of modelling; FIG. 11
Description: In this example, the efficacy of the compound of the present disclosure was tested on renal fibrosis in an animal model of renal fibrosis. Briefly, C57BL/6J mice, male, 7 to 8 weeks old, were used. The mice were anaesthetized, made to lie supine on a foam board, and disinfected with iodophor, and a longitudinal incision was made in the skin in the middle of the lower abdomen to locate the white line of the abdominal muscle, where the abdominal muscle, fascia and peritoneal layer were dissected. After exposing the surgical field, the kidneys were exposed by pushing the stomach and mesentery of the mice to the right side with a gauze soaked with saline. The model of renal fibrosis was constructed by locating the transparent ureter from the renal pelvis along the renal artery, separating the left ureter, ligating the upper ⅓ of the left ureter, suturing the incision layer by layer, and finally disinfecting with iodophor. Dosing via intraperitoneal injection was started from the 2nd week of modelling. At the end of the experiment, the mouse serum was collected and kidney tissues were taken for Masson staining index assay.

aging skin = assay: Aging skin in naturally aging mouse model; type: in vivo; details: skin application twice a week, 6 consecutive weeks; aged female mice (22 months old); FIG. 10
Description: In this example, aged female C57bl/6J mice (22 months old) were used. The drug was administered by skin application at twice a week for 6 consecutive weeks.

hypertrophic scars = assay: Rabbit ear hypertrophic scar model; type: in vivo, New Zealand white rabbits; details: 150 μM, 100 μL injected into lesion once a week, 4 injections, from postoperative Day 14; FIG. 12
Description: In this example, the efficacy of the compounds of the present disclosure was tested on hypertrophic scars in a rabbit ear hypertrophic scar animal model. Briefly, 10 New Zealand white rabbits, male, 3 months old, were used. The New Zealand rabbits were anaesthetized with sodium pentobarbital and six circular full-thickness wounds with a diameter of 10 mm were made on the ventral surface of each ear by removing the epidermis, dermis and perichondrium to expose the cartilage. The rabbits were randomly divided into control and RZ001 experimental groups. On postoperative Day 14, after complete re-epithelialization of the wound surface, the compound (150 μM, 100 μL, dissolved in DMSO solution) or negative control DMSO 100 μL was injected into the center of each lesion from the wound edge once a week for a total of 4 injections. Improvement of scar formation by the compound was assessed by SEI (Scar Excess Index).

[1] = tested on: oxygen-induced retinopathy (OIR); assay: Mouse model of oxygen-induced retinopathy (OIR); type: in vivo; details: intravitreal (IVT), 1 μl of 200 μM at P12, retinas at P17, IB4 staining; FIG. 3
Description: The efficacy of the prodrugs RZ001-RZ006 as well as RZ201 were investigated in a mouse model of oxygen-induced retinopathy (OIR) which to some extent indicates an in vivo model of retinopathy of prematurity (ROP), diabetic retinopathy, and wet age-related macular degeneration. From postnatal Day 7 (P7) to Day 12 (P12), C57Bl/6 mouse pups and their CD1 foster mothers were exposed to hyperoxia (75% O2). At P12, the animals were injected intravitreally with 1 μl of the test composition formulated in 1% DMSO, 10% Tween 80, and 20% PEG-400 (200 μM the compound) and returned to room air until Day 17 (P17). On P17, the eyeballs were enucleated and the retinas were dissected for vascular staining. To determine the area of avascularity or angiogenesis, the retinas were flattened and stained with isolectin B4 (IB4).

[2] = tested on: normal A549 cells, IMR90 cells, RPE cells, mouse chondrocytes, mouse skin fibroblasts; assay: Cell viability of normal cells (CellTiter-Glo); type: cell-based, human; details: 1 μM, 72 hours, FIGS. 2A to 2E
Description: (§1) In this example, human non-small cell lung cancer cell line (A549 cells), human embryonic lung fibroblast cell line (IMR90 cells), human retinal pigment epithelial cells (RPE cells), mouse chondrocytes, and mouse skin fibroblasts were selected. The cells above were induced to obtain senescent cells by etoposide (10 μM). The effect of the target compounds RZ001-RZ006 and RZ201 on the viability of normal and senescent cells above was detected, thereby evaluating the specific killing effect of the prodrugs RZ001-RZ006 and RZ201 on senescent cells above.
(§2) Briefly, senescent and normal cells above were selected and plated separately (96-well plates). After adding the compounds RZ001-RZ006 and RZ201 (concentration: 1 μM) for 72 hours, CellTiter-Glo® Luminescent Cell Viability Assay Kit (Promega) was used to detect cell viability, and the results were shown in FIGS. 2A to 2E.

[3] = tested on: senescent A549 cells, IMR90 cells, RPE cells, mouse chondrocytes, mouse skin fibroblasts; assay: Cell viability of senescent cells (CellTiter-Glo); type: cell-based, human; details: 1 μM, 72 hours; etoposide (10 μM)-induced senescent cells; FIGS. 2A to 2E
Description: as §1, §2

Row | Structure (SMILES) | pathology (kidney, Masson staining) (renal fibrosis) | serum creatinine (Cr) levels (renal fibrosis) | serum urea nitrogen (BUN) levels (renal fibrosis) | epidermal thickness scores of the skin (aging skin) | scar excess index (SEI) (hypertrophic scars) | angiogenesis [1] | avascular zone [1] | cytotoxicity against normal cells (cell viability) [2] | cytotoxicity against senescent cells (cell viability) [3]
1 | Cc1c(-c2ccc(N3CCc4cccc(C(=O)Nc5nc6ccccc6s5)c4C3)nc2C(=O)OCOC(=O)C(C)C)cnn1CC12CC3CC(CC(C3)C1)C2 [RZ001] | statistically significant improvements | statistically significant improvements | statistically significant improvements | statistically significant improvements | statistically significant improvement | – | – | – | –
2 | Cc1oc(=O)oc1COC(=O)c1nc(N2CCc3cccc(C(=O)Nc4nc5ccccc5s4)c3C2)ccc1-c1cnn(CC23CC4CC(CC(C4)C2)C3)c1C [RZ201] | statistically significant improvements | statistically significant improvements | statistically significant improvements | statistically significant improvements | – | statistically significant improvements | statistically significant improvements | without significant killing effects on normal cells | cytotoxicity primarily against senescent cells
